What was measured:
[1] = test system: LNCaP cells (PSMA positive); assay: Evaluation of binding using cultured cells (LNCaP); format: cell-based, human; conditions: FIG. 4
Method: LNCaP cells (PSMA positive, human prostate cancer) and PC-3 cells (PSMA negative, human prostate cancer) were used. These cells were purchased from American Type Culture Collection and DS Biomedical, respectively. The LNCaP cells and the PC-3 cells were each cultured in RPMI 1640 containing antibiotics (penicillin and streptomycin) and 10% inactivated fetal bovine serum, manufactured by Nacalai Tesque, Inc. at 37° C. under 5% CO2.
The LNCaP cells and the PC-3 cells were each seeded in a 12 well plate at 4.0×10^5 cells/well, and allowed to stand at 37° C. under 5% CO2 for 48 hours.
The culture medium was removed, and an assay medium (0.5% FBS-containing RPMI 1640 medium) solution (1 mL) containing [^111In]In-PSMA-DA1 or [^111In]In-PSMA-DB (37 kBq) was added to the residue. Thereafter, the plate was allowed to stand at 37° C. under 5% CO2 for one hour. […]
The radioactivity of each of the assay medium and the cell lysate was measured with a gamma counter. Separately from this, the total protein concentration in the cell lysate was calculated using a BCA Protein Assay Kit manufactured by Thermo Fisher Scientific. A value (% ID/mg protein) obtained by dividing the percentage (% ID) of the amount of radioactivity of a sample to the amount of added radioactivity by the total protein mass was calculated for each sample.
Data was expressed as mean±standard deviation. […]

[2] = test system: PC-3 tumor transplanted mice; assay: In vivo radioactivity distribution using PC-3 tumor transplanted mice
Method: Animal experiments were performed in accordance with the guidelines of Kyoto University Animal Experiment Committee. Male CB17/IcrJcl-Prkdc^scid mice were purchased from CLEA Japan, Inc. The animals were raised under 12 h/12 h day/night cycle conditions and freely fed with food and water. LNCaP cells (1.0×10^7 cells/mouse) or PC-3 cells (1.0×10^7 cells/mouse) were suspended in a mixed liquid (1:1,150 μL) of PBS and Matrigel manufactured by Corning Life Sciences Inc., and the suspension was subcutaneously transplanted to the right shoulder of each of the mice under isoflurane anesthesia. Thereafter, the mice were raised for 40 to 60 days.
A saline solution (185 kBq, 100 μL) of [^111In]In-PSMA-DA1 or [^111In]In-PSMA-DB was injected into each of LNCaP or PC-3 tumor transplanted mice via the tail vein thereof (n=3 in each group). The mice were euthanized 1, 4, 24, 48, 96, and 192 hours after the injection. Thereafter, blood and organs were collected, and the mass and radioactivity of each of the organs were measured.
A result thereof is indicated as a value (% ID/g) obtained by dividing the percentage (% ID) of the amount of radioactivity with respect to the amount of injected radioactivity (injected dose) by the mass of blood or the mass of an organ (g).

[3] = target: human serum albumin (HSA) (Homo sapiens, UniProt P02768); assay: Evaluation of binding to albumin (spin column), HSA solution and PBS; conditions: FIG. 5
Chain of human serum albumin (HSA) (P02768 25-609): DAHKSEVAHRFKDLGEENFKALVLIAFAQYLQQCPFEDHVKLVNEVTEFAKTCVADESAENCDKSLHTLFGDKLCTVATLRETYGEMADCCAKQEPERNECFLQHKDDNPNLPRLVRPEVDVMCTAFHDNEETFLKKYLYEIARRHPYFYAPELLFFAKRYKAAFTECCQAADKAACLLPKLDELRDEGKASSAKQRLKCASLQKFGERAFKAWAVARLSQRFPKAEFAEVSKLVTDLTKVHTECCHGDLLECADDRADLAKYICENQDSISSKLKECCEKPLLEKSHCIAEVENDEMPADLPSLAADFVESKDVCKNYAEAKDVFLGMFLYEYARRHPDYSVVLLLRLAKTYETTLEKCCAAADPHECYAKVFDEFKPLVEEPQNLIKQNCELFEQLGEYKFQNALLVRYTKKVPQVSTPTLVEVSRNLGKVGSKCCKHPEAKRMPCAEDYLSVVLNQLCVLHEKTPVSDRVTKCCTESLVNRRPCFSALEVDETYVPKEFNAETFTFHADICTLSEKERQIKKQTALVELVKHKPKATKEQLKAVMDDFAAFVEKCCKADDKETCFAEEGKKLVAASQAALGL
Method: Thereafter, the reaction liquid was added to a spin column (Sephadex G-100 manufactured by Cytiva), and centrifuged at 1500×g at 4° C. for two minutes. After the separation, the radioactivity of each of the column and the eluate was measured with a gamma counter.
Data was expressed as mean±standard deviation. A significant difference test was performed using Student's t-test, and a result of p<0.05 was defined to have a significant difference.
The higher a value, the higher binding property to albumin.
Thereafter, the reaction liquid was added to a spin column (Sephadex G-100 manufactured by Cytiva), and centrifuged at 1500×g at 4° C. for two minutes. After the centrifugation, the radioactivity of each of the column and the eluate was measured with a gamma counter.

O=C([O-])CN1CCN(C(CCC(=O)NCCCC[C@H](NC(=O)N[C@@H](CCC(=O)O)C(=O)O)C(=O)O)C(=O)[O-])CCN(CC(=O)[O-])CCN(C(CCC(=O)Nc2ccccc2)C(=O)[O-])CC1.[111In+3] (stereo partly shown) [[^111In]In-PSMA-DB]
Effect of excess 2-PMPA on binding (in words) ([1]; 2-PMPA 100 μM): significantly reduced | Binding property LNCaP vs PC-3 cells (in words) [1]: higher binding property to the LNCaP cells than the PC-3 cells | Accumulation: Blood ([2]; 1 hour after injection): 1.92 ± 0.27 % ID/g | Accumulation: Brain ([2]; 1 hour after injection): 0.06 ± 0.00 % ID/g | Accumulation: Heart ([2]; 1 hour after injection): 0.49 ± 0.05 % ID/g | Accumulation: Intestinal ([2]; 1 hour after injection): 0.48 ± 0.04 % ID/g | Accumulation: Kidney ([2]; 1 hour after injection): 49.5 ± 12.6 % ID/g | Accumulation: Liver ([2]; 1 hour after injection): 0.62 ± 0.03 % ID/g | Accumulation: Lung ([2]; 1 hour after injection): 1.36 ± 0.23 % ID/g | Accumulation: Muscle ([2]; 1 hour after injection): 0.21 ± 0.08 % ID/g | Accumulation: PC-3 tumor ([2]; 1 hour after injection): 0.61 ± 0.06 % ID/g | Accumulation: Pancreas ([2]; 1 hour after injection): 0.44 ± 0.06 % ID/g | Accumulation: Spleen ([2]; 1 hour after injection): 2.57 ± 0.39 % ID/g | Accumulation: Stomach ([2]; 1 hour after injection): 0.12 ± 0.04 % ID | Accumulation in the PC-3 tumor compared with the LNCaP tumor (in words) ([2]; same time point): lower than accumulation thereof in the LNCaP tumor at the same time point | Radioactivity in the eluate, PBS (in words) [3]: no significant radioactivity was observed in the eluate
